Assay results from patent US7662936B2, “Mass spectrometry of antibody conjugates” (priority 2004, dated 2010).
Where a SMILES comes first, the peptide text is derived from it. [ ]: non-standard residue; d: D form. The star is where a group is joined. Dolaproine = CO[C@@H]([C@@H]1CCCN1)[C@@H](C)C(=O)O; Dil = CC[C@H](C)[C@H](NC)[C@@H](CC(=O)O)OC; X1 = C[C@@H](N*)[C@@H](O)c1ccccc1; NMeV = CN[C@H](C(=O)O)C(C)C

Columns and labels:
[1] = Rat study of trastuzumab-MC-val-cit-PAB-MMAE (Example 8): clinical observations, mortality, body weight; type: in vivo, Sprague-Dawley rats
Description: Groups 2 and 3 were administered a preparation of Tr-MC-val-cit-PAB-MMAE with average drug loading of 8.7 MMAE/Tr. Groups 4, 5, and 6 were administered a preparation of Tr-MC-val-cit-PAB-MMAE with average drug loading of 5.3 MMAE/Tr. […] Group 6 received the highest dose of 4209 μg MMAE/m^2.
The dose solutions were administered by a single intravenous bolus tail-vein injection on Study Day 1 at a dose volume of 10 ml/kg. […] Body weights of the animals were measured pre-dose on Study Day 1 and daily thereafter. Whole blood was collected into EDTA containing tubes for hematology parameters and complete blood counts. Whole blood was collected into serum separator tubes for clinical chemistry parameters. Blood samples were collected pre-dose on […], and on Study Days 3 and 5. Whole blood was also collected into lithium heparin containing tubes and the plasma was frozen at −70° C. for later analysis.

[2] = more cytotoxic; cited from earlier work
[3] = cited from earlier work

SMILES	appearance of animals throughout the 5 days on study ([1]; Group 7, free MMAE 0.206 mg/kg, single iv bolus, 6 female rats)	changes in body weight ([1]; groups 2, 4 and 7, comparable amounts of MMAE (840 ug/m^2))	cytotoxicity relative to conventional cancer chemotherapeutic agents like methotrexate, daunorubicin, and vincristine [2]	adverse effects leading to discontinuation of clinical trials [3]
CC[C@H](C)[C@@H]([C@@H](CC(=O)N1CCC[C@H]1[C@H](OC)[C@@H](C)C(=O)N[C@H](C)[C@@H](O)c1ccccc1)OC)N(C)C(=O)[C@@H](NC(=O)[C@@H](NC)C(C)C)C(C)C [MMAE] (H-[NMeV]V[Dil][Dolaproine]-X1)	appeared healthy	comparable changes in body weight		
COc1cc2cc(c1Cl)N(C)C(=O)C[C@H](OC(=O)[C@H](C)N(C)C(C)=O)[C@]1(C)O[C@H]1[C@H](C)[C@@H]1C[C@@](O)(NC(=O)O1)[C@H](OC)/C=C/C=C(\C)C2 [Maytansine]			100-to 1000 fold	serious adverse effects on the central nervous system and gastrointestinal system
